{
  "source": "paper PMC12666239",
  "about": "(Chembiochem, 2025)",
  "key": {"[1]": {"biological_target": "Nsp3b (SARS-CoV-2 macrodomain) (Severe acute respiratory syndrome coronavirus 2, UniProt P0DTD1)", "assay": "biochemical", "format": "binding"}, "CHIKV (OPY1)": {"tested_on": "CHIKV (OPY1)", "assay": "microbe, parasite or virus in culture", "format": "cell-based", "conditions": "Chikungunya virus, Vero C1008, 48 h"}, "Nsp3b [2]": {"biological_target": "T1, Nsp3b (Severe acute respiratory syndrome coronavirus 2, UniProt P0DTD1)", "format": "biochemical, SARS-CoV-2"}, "CHIKV macrodomain [3]": {"biological_target": "T2, CHIKV macrodomain (Chikungunya virus, UniProt Q8JUX6)", "T2 sequence (Q8JUX6 1334-1493 limits assumed)": "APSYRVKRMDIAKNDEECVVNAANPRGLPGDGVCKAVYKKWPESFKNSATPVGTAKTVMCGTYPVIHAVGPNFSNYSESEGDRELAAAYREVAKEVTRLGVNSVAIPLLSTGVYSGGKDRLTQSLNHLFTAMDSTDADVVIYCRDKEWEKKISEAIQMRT", "conditions": "cited from earlier work"}, "Nsp3b [4]": {"biological_target": "T1, Nsp3b", "format": "binding, SARS-CoV-2"}, "SARS-CoV macrodomain": {"biological_target": "SARS-CoV macrodomain (Severe acute respiratory syndrome coronavirus, UniProt P0C6X7)", "assay": "biochemical", "format": "binding"}, "MERS-CoV macrodomain [5]": {"biological_target": "T3, MERS-CoV macrodomain (Middle East respiratory syndrome-related coronavirus, UniProt K9N7C7)", "T3 sequence (K9N7C7 1110-1276 limits assumed)": "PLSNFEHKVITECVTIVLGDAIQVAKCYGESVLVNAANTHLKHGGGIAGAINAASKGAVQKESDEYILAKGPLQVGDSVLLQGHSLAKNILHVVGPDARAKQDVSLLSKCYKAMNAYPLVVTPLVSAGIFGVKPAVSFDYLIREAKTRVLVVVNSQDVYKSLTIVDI", "assay": "biochemical", "format": "binding"}, "[6]": {"biological_target": "Rubella virus (RuV) macrodomain (Rubella virus, UniProt Q86500)", "sequence (Q86500 806-985 limits assumed)": "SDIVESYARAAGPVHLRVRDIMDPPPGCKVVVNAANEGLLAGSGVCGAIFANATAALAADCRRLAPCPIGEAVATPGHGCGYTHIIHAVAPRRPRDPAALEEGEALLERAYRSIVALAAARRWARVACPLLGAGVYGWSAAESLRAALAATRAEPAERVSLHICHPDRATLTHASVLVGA", "format": "binding"}, "CHIKV macrodomain [7]": {"biological_target": "T2, CHIKV macrodomain", "format": "binding"}, "hMacroD2": {"biological_target": "hMacroD2 (Homo sapiens, UniProt A1Z1Q3)", "sequence (A1Z1Q3 7-243)": "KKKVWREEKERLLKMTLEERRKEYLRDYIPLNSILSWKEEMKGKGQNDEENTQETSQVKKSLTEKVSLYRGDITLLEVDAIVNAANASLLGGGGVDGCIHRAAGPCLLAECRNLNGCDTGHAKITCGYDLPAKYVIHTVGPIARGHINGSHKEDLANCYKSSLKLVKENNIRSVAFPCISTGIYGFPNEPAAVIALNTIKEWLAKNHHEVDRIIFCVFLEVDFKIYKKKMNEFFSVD", "format": "binding"}, "MERS-CoV macrodomain [8]": {"biological_target": "T3, MERS-CoV macrodomain", "format": "biochemical"}, "SARS-CoV-2 B.1": {"tested_on": "SARS-CoV-2 B.1", "assay": "microbe, parasite or virus in culture", "format": "cell-based", "conditions": "for EC50: Severe acute respiratory syndrome coronavirus 2, VeroE6/TMPRSS2, 48 h"}, "in vitro [9]": {"assay": "in vitro", "conditions": "African green monkey"}, "in vitro [10]": {"assay": "in vitro", "conditions": "African green monkey", "remark": "listed apart in the source"}, "Nsp3b [11]": {"tested_on": "Nsp3b", "conditions": "cited from earlier work"}},
  "note": "Values joined by “and” are separate entries in the source; they are usually repeats but may differ in a detail not shown here. Equal values may be shown once. “Also recorded” adds a separate entry of the source.",
  "data": [
    {"compound": "Nc1ncnc2c1ncn2[C@@H]1O[C@H](COP(=O)(O)OP(=O)(O)O)[C@@H](O)[C@H]1O", "note": "[ADP]", "values": [
      {"measurement": "Kd", "setting": "[1]", "value": "> 10000", "unit": "µM"}
    ]},
    {"compound": "Nc1ncnc2c1ncn2[C@@H]1O[C@H](COP(=O)(O)O)[C@@H](O)[C@H]1O", "note": "[AMP]", "values": [
      {"measurement": "Kd", "setting": "[1]", "value": "1900 to 2500", "unit": "µM"}
    ]},
    {"compound": "Nc1ncnc2c1ncn2[C@@H]1O[C@H](COP(=O)(O)OP(=O)(O)NP(=O)(O)O)[C@@H](O)[C@H]1O", "note": "[APPNHP]", "values": [
      {"measurement": "Kd", "setting": "[1]", "value": "1900 to 2500", "unit": "µM"}
    ]},
    {"compound": "Nc1ncnc2c1ncn2[C@@H]1O[C@H](COP(=O)(O)OP(=O)(O)OP(=O)(O)O)[C@@H](O)[C@H]1O", "note": "[ATP]", "values": [
      {"measurement": "Kd", "setting": "[1]", "value": "1900 to 2500", "unit": "µM"}
    ]},
    {"compound": "NC(=O)c1nc(F)c[nH]c1=O", "note": "[Favipiravir, reference compound]", "values": [
      {"measurement": "EC50", "setting": "CHIKV (OPY1)", "value": 11.3, "unit": "µM"}
    ]},
    {"compound": "N#C[C@@]1(c2ccc3c(N)ncnn23)O[C@H](CO)[C@@H](O)[C@H]1O", "note": "[GS‐441524]", "values": [
      {"measurement": "reduction of the k value versus free macrodomain", "setting": "Nsp3b [2]", "value": 33, "unit": "%"},
      {"measurement": "interaction with CHIKV macrodomain", "setting": "CHIKV macrodomain [3]", "value": "no significant interaction; also recorded: does not bind detectably"}
    ]},
    {"compound": "N#C[C@@]1(c2ccc3c(N)ncnn23)O[C@H](COP(=O)(O)O)[C@@H](O)[C@H]1O", "note": "[RMP]", "values": [
      {"measurement": "Kd", "setting": "[1]", "value": "~10", "unit": "µM"}
    ]},
    {"compound": "N#C[C@@]1(c2ccc3c(N)ncnn23)O[C@H](COS(N)(=O)=O)[C@@H](O)[C@H]1O", "note": "[compound 3]", "values": [
      {"measurement": "ΔG", "setting": "Nsp3b [4]", "value": "−8.28", "unit": "kcal mol^–1"},
      {"measurement": "ΔH", "setting": "Nsp3b [4]", "value": "−12.00 ± 0.07 and −12.00 kcal mol^–1 and −12.00 and −12.0 ± 0.07 kcal mol^–1"},
      {"measurement": "ΔH compared to GS-441524", "setting": "Nsp3b [4]", "value": "–6.75 kcal mol^−1"},
      {"measurement": "−TΔS", "setting": "Nsp3b [4]", "value": 3.71, "unit": "kcal mol^–1"},
      {"measurement": "ΔG", "setting": "SARS-CoV macrodomain", "value": "−7.52", "unit": "kcal mol^–1"},
      {"measurement": "ΔH", "setting": "SARS-CoV macrodomain", "value": "−12.5 ± 0.3", "unit": "kcal mol^–1"},
      {"measurement": "−TΔS", "setting": "SARS-CoV macrodomain", "value": 4.96, "unit": "kcal mol^–1"},
      {"measurement": "Kd", "setting": "SARS-CoV macrodomain; K D", "value": "3 µM and 3.08 µM"},
      {"measurement": "Kd", "setting": "MERS-CoV macrodomain [5]", "value": "104 ± 13", "unit": "µM"},
      {"measurement": "ΔG", "setting": "MERS-CoV macrodomain [5]", "value": "−5.43", "unit": "kcal mol^–1"},
      {"measurement": "interaction by ITC", "setting": "[6]", "value": "no interaction was observed"},
      {"measurement": "interaction by ITC", "setting": "CHIKV macrodomain [7]", "value": "no interaction was observed"},
      {"measurement": "interaction by ITC", "setting": "hMacroD2", "value": "no interaction was observed; also recorded: no binding was observed"},
      {"measurement": "reduction of the k value versus free macrodomain", "setting": "Nsp3b [2]", "value": 47, "unit": "%"},
      {"measurement": "reduction of the k value versus free macrodomain", "setting": "MERS-CoV macrodomain [8]", "value": "16% and ≈ 16%"},
      {"measurement": "inhibition of SARS-CoV-2", "setting": "SARS-CoV-2 B.1", "value": "no measurable inhibition"},
      {"measurement": "EC50", "setting": "SARS-CoV-2 B.1", "value": "> 40", "unit": "µM"},
      {"measurement": "EC50", "setting": "CHIKV (OPY1)", "value": 21.8, "unit": "µM"},
      {"measurement": "pKa", "setting": "physchem", "value": "9.37 ± 0.02"},
      {"measurement": "CC50", "setting": "in vitro [9]", "value": "> 40", "unit": "µM"},
      {"measurement": "CC50", "setting": "in vitro [10]", "value": "> 40", "unit": "µM"}
    ]},
    {"compound": "CCC(CC)COC(=O)[C@H](C)N[P@](=O)(OC[C@H]1O[C@@](C#N)(c2ccc3c(N)ncnn23)[C@H](O)[C@@H]1O)Oc1ccccc1", "note": "[remdesivir, reference compound]", "values": [
      {"measurement": "EC50", "setting": "SARS-CoV-2 B.1", "value": 5.48, "unit": "µM"}
    ]},
    {"compound": "ADP‐ribose [ADPr, reference compound]", "values": [
      {"measurement": "reduction of the k value versus free macrodomain", "setting": "MERS-CoV macrodomain [8]", "value": "32% and ≈ 32%"}
    ]},
    {"compound": "α‐azido‐ADPr", "values": [
      {"measurement": "IC50", "setting": "Nsp3b [11]", "value": 0.49, "unit": "µM"}
    ]},
    {"compound": "β‐O‐methyl‐ADPr", "values": [
      {"measurement": "IC50", "setting": "Nsp3b [11]", "value": 127, "unit": "µM"}
    ]}
  ]
}
